# In PMC6383986, “Fragment-Based Covalent Ligand Screening Enables Rapid Discovery of Inhibitors for the RBR E3 Ubiquitin Ligase HOIP” (Journal of the American Chemical Society, 2019):
# “Also recorded” adds a separate entry of the source.
# Experiments:
# [1] = biological target: T1, HOIP RBR domain (Homo sapiens, UniProt Q96EP0); assay: Protein LC-MS compound screening of analogs; type: binding; conditions: 2 μM protein, 0.5, 4, 24 h; for labeling of HOIP RBR domain relative to hit (5): 20 μM compound (10-fold excess)
# T1 construct: made in house; host or cells: E. coli BL21-GOLD(DE3)
# T1 sequence (Q96EP0 697-1072): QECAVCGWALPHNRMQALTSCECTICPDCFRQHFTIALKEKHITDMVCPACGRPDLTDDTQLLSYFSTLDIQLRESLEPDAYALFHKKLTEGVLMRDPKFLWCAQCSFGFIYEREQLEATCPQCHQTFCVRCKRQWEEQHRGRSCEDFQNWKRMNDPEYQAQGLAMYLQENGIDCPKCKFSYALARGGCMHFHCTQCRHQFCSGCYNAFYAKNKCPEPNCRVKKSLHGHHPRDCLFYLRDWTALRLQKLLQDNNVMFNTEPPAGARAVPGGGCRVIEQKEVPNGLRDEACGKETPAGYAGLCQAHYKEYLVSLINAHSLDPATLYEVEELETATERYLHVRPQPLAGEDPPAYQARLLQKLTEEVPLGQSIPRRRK
# Procedure: of (1) and 3 mM stock solution of (5) in DMSO, giving a final concentration of 6 and 30 µM respectively, and 1% DMSO).
# The UbcH5c and UbcH7 E2 enzymes were diluted with buffer to afford new stock solutions at 10 µM, of which 25 µL was used for each sample (final concentration 5 µM, 85-91 µg/mL), together with 24.5 µL buffer and 0.5 µL compound solution (1 mM stock solution of (1) and 5 mM stock solution of (5) in DMSO, giving a final concentration of 10 and 50 µM respectively, and 1% DMSO).
# The E1 enzyme was diluted with buffer to afford a new stock solution at 2 µM, of which 25 µL was used for each sample (final concentration 1 µM, 120 µg/mL), together with 24.5 µL buffer and 0.5 µL compound solution (200 µM stock solution of (1) and 1 mM stock solution of (5) in DMSO, giving a final concentration of 2 and 10 µM respectively, and 1% DMSO).
# Protocol as described above, using the HOIP RBR (stock solutions around 300 µM) in buffer (50 mM HEPES, 150 mM NaCl, pH 7.5) to afford a new stock solution at 4 µM of which 25 µL was used for each sample (final concentration 2 µM, 87 µg/mL), together with 24.5 µL buffer and 0.5 µL compound solution (2 mM stock solutions in DMSO, giving a final concentration of 20 µM, and 1% DMSO). The samples were analyzed after 0.5, 4, and 24 h incubation.
# Supplementary Figure S7. TIC traces of deconvoluted protein masses from the screening of analogues to hit compound (5). The HOIP RBR (2 µM; MW = 43398 g/mol) was incubated with […]
# compound (17) and aliquots were analyzed after 0.5, 4, and 24 h incubation. The data was used for the generation of the heat map in Figure 5A.
# (1 picture or pasted object on this page, not shown here)
# [2] = biological target: T1, HOIP RBR domain; assay: In vitro polyubiquitination assay; type: biochemical; conditions: HOIP RBR preincubated with compound (200 μM) overnight; E2 UbcH7 or UbcH5c; vs DMSO
# Procedure: 4.3 Polyubiquitination assay
# The ubiquitination assay was essentially carried out as previously described.12 The HOIP RBR domain was pre-incubated with compounds (5) or (6), or DMSO in 50 mM HEPES, 150 mM NaCl, pH 7.5 buffer at 23 °C with gentle shaking for overnight (20-24 h). E1, E2 (UbcH7 or UbcH5c), ubiquitin, and MgCl2 were added to each vial, and aliquots of 15 µL were withdrawn to mark time zero. ATP was then added and aliquots of 15 µL were withdrawn after 5, 15, 30, and 60 min incubation. Final concentrations: E1 (1 µM), E2 (5 µM), E3 (5 µM), compounds (200 µM), DMSO (1%), ubiquitin (40 µM), MgCl2 (20 mM), ATP (10 mM); reaction volume 100 µL. The aliquots were analyzed by SDS PAGE (Figure 4A and Supplementary Figure S9) as described below (section
# [3] = test system: HEK293T cells overexpressing full-length HOIP, HOIL-1L, and SHARPIN; assay: CellTiter-Glo Luminescent cell viability assay, transfected cells; type: cell-based; conditions: 17 h
# Procedure: Thurston, Imperial College London. 2.3 × 10^6 cells were seeded into 100 mm Petri dishes in DMEM media supplemented with 10% v/v FBS (Biosera) and 1% v/v L-glutamine/penicillin/streptomycin (Sigma-Aldrich) and incubated at 37 °C overnight. The following morning the cells were transfected using either 6 µg pcDNA3 or 4.5 µg HOIP, 0.3 µg HOIL-1L and 1.2 µg SHARPIN as well as 450 ng pRDII Luc and 180 ng pRLTK (Promega) plasmids. 7 h after transfection, the cells were trypsinized and re-suspended in DMEM media supplemented with 1% v/v FBS (Biosera) and 1% v/v L-glutamine/penicillin/streptomycin (Sigma-Aldrich). […]
# (§1) Reporter assays: After incubating the plates for 17 h, Firefly and Renilla Luciferase activity was analyzed using the Dual-Luciferase® Reporter Assay System (Promega) and a BertholdTech […]
# (§2) with Mikrowin 2000 software version 4.41: using its injectors to inject 100 µL LAR II and 100 µL Stop&Glo (see manufacturer’s instructions; Promega #E1960). NF-κB regulated luciferase activity was first normalized to Renilla luciferase activity and then the fold activation relative to cells transfected with empty vector calculated. […]
# Cell viability assays: After incubating the plates for 17 h in the presence of compound, cell viability was determined using the CellTiter-Glo® Luminescent Cell Viability Assay according to manufacturer’s instructions (Promega #G7571). […]
# [4] = test system: NF-κB activation in HEK293T cells overexpressing full length HOIP, HOIL-1L, and SHARPIN; assay: NF-κB Luciferase reporter assay; type: cell-based; conditions: overnight (17 h) treatment
# Procedure: suspensions were agitated at 4 °C overnight. The supernatants were removed and kept on ice, and the beads were washed with wash buffer (2 × 0.5 mL), PBS (2 × 0.5 mL), and 50 mM HEPES, 150 mM NaCl, pH 7.5 buffer (2 × 0.5 mL).
# A polyubiquitination assay master mix was prepared by mixing E1, UbcH7, ubiquitin, MgCl2, in buffer (50 mM HEPES, 150 mM NaCl, pH 7.5). The solution (30 µL per sample) was added to the beads, and lastly ATP (0.6 µL of 100 mM stock) was added to initiate the reaction. Final concentrations were E1 (0.2 µM), UbcH7 E2 (1 µM), ubiquitin (10 µM), MgCl2 (4 mM), ATP (2 mM). The vials were incubated (Eppendorf Thermomixer) at 25 °C, 900 rpm for 1.5 h. […] All samples were analyzed by SDS PAGE and Western Blot (Figure 6C and Supplementary Figure S13) as described in sections 4.5 and 4.6. […]
# as §1, §2
# reader. […]
Compound,labeling of HOIP RBR domain relative to hit (5) [1],further results
COC(=O)/C=C/CNC(=O)c1ccc(-c2ccccc2)[nH]c1=O [Compound 11i],inactive,
COC(=O)/C=C/CNC(C)=O [Compound 10],significantly lower activity,
COC(=O)CCCNC(=O)c1cc2c([nH]c1=O)CCC2 [Compound 6],abolished activity,polyubiquitin chain formation [2]: no inhibitory effect; also recorded: no effect on catalytic activity
COC(=O)CCCNC(=O)c1cc2c([nH]c1=O)CCCC2 [Compound 17],,labeling of HOIP RBR domain ([1]; 200 μM compound): abolished activity; effect on cell viability [3]: neither compound had any effect on cell viability; effect on NF-κB activity [4]: no effect on NF-κB activity
COC(=O)/C=C/CCNC(=O)c1cc2c([nH]c1=O)CCC2 [Compound 9],significantly lower activity,
